Source: US7906282B2, “Synthetic nucleic acid molecule compositions and methods of preparation” (Promega Corporation, priority 2000, dated 2011)
Where a chain is given by its changes, count along the chain named. Names and notes keep the numbering of the source. Like-named read-outs stand apart in the source and are kept apart here.

How the values were obtained:
[1] = biological target: T1, synthetic red click beetle luciferase RD (RDver5.2; YG#81-6G01 variant A224H/S247H/N346I/H348Q/R351G), SEQ ID NO: 222 (Pyrophorus plagiophthalamus, UniProt Q718C1); experiment: Km determination with partially purified enzyme (Table 3), RD; assay type: biochemical
T1 construct: C-terminal tail changed
T1 sequence (Q718C1 entry or part of it, stated change not applied): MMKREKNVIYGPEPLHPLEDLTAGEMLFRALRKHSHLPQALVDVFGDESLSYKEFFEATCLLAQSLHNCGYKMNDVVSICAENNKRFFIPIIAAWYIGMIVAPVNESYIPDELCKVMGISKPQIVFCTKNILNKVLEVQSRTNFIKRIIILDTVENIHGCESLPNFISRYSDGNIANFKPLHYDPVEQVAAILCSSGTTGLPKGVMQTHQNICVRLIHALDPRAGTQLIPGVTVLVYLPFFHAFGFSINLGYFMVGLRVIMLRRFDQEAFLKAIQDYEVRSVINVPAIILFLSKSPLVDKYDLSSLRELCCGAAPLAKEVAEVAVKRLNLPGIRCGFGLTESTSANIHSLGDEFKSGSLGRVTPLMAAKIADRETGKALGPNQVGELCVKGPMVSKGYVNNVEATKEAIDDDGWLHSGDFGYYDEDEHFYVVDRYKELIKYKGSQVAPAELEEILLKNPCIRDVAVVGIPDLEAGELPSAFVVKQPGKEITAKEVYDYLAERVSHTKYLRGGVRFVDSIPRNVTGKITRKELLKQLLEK
Source text: (§1) The parent click beetle luciferase YG#81-6G1 (“YG”), and the synthetic click beetle luciferase genes GRver5.1 (“GR”), RDver5.2 (“RD”), and RD156-1H9 were cloned into the four pGL3 reporter vectors (Promega Corp.): • pGL3-Basic=no promoter, no enhancer • pGL3-Control=SV40 promoter, SV40 enhancer • pGL3-Enhancer=SV40 enhancer (3′ to luciferase coding sequences) • pGL3-Promoter=SV40 promoter. The primers employed in the assembly of GR and RD synthetic genes facilitated the cloning of those genes into pRAM vectors. To introduce the genes into pGL3 vectors (Promega Corp., Madison, Wis.) for analysis in mammalian cells, each gene in a pRAM vector (pRAM RDver5.1, pRAM GRver5.1, and pRAM RD156-1H9) was amplified to introduce an Nco I site at the 5′ end and an Xba I site at the 3′ end of the gene. The primers for pRAM RDver5.1 and pRAM GRver5.1 were: […]
(§2) Partially purified enzymes expressed from the synthetic genes and the parent gene were employed to determine Km for luciferin and ATP (see Table 3).

[2] = system: click beetle luciferase YG#81-6G01 (mutant of wild type LucPplYG, SEQ ID NO: 23), SEQ ID NO: 24; settings: vs wild type LucPplYG; cited from earlier work
[3] = system: MCF-7 cells; experiment: TPA induction of Renilla luciferase co-reporter vectors in transfected MCF-7 cells (Table 13); assay type: cell-based; settings: Homo sapiens, MCF7, 24 h, 0.2 nM TPA, vs untreated
Experimental: Experimental treatment sometimes may activate cryptic sites within the gene and cause induction or suppression of the co-reporter expression, which would compromise its function as co-reporter for normalization of transfection efficiencies. One example is that TPA induces expression of co-reporter vectors harboring the wild-type gene when transfecting MCF-7 cells. 500 ng pRL-TK (native), 5 μg native and synthetic pRG-B, 2.5 μg native and synthetic pRG-TK were transfected per well of MCF-7 cells. 100 ng/well pGL3-control (firefly luc+) was co-transfected with all RL plasmids. Carrier DNA, pUC19, was used to bring the total DNA transfected to 5.1 μg/well. 15.3 μl TransFast Transfection Reagent (Promega Corp., Madison, Wis.) was added per well. Sixteen hours later, cells were trypsinized, pooled and split into six wells of a 6-well dish and allowed to attach to the well for 8 hours. Three wells were then treated with the 0.2 nM of the tumor promoter, TPA (phorbol-12-myristate-13-acetate, Calbiochem #524400-S), and three wells were mock treated with 20 μl DMSO. Cells were harvested with 0.4 ml Passive Lysis Buffer 24 hours post TPA addition.

[4] = biological target: T2, synthetic red click beetle luciferase RDver5.2 (YG#81-6G01 variant A224H/S247H/N346I/H348Q/R351G), SEQ ID NO: 222 (Pyrophorus plagiophthalamus, UniProt Q718C1); experiment: Km for luciferin, lysates of bacterial cells (Table 6), RDver5.2; assay type: biochemical; settings: read-out: Km Luciferin, CCLR lysate diluted 1:10, HEPES pH 7.8
T2 construct: C-terminal tail changed; lysate of bacterial cells
T2 sequence (Q718C1 entry or part of it, stated change not applied): as above
Experimental: (§3) The Km values for luciferin and the luminescence intensity relative to RDver5.2 were determined for all three clones in several independent experiments. All cells samples were processed with CCLR lysis buffer (E1483, Promega Corp., Madison, Wis.) and diluted 1:10 into buffer (25 mM HEPES pH 7.8, 5% glycerol, 1 mg/ml BSA, 150 mM NaCl). Table 7 summarizes the results (Lum: luminescence values were normalized to optical density; measurements for independent experiments are separated by forward slashes) from expression in bacterial cells. RD156-1H9, the clone with the highest luminescence intensity (5 to 10-fold increase) also has an about 2-fold higher Km for luciferin.

[5] = biological target: T3, click beetle luciferase RDver5.2 variant RD156-1H9 (M2I/S349T/K488T/E538V), SEQ ID NO: 223 (Pyrophorus plagiophthalamus, UniProt Q718C1); assay type: biochemical; settings: for Km: read-out: Km Luciferin, CCLR lysate diluted 1:10, HEPES pH 7.8
T3 construct: C-terminal tail changed; lysate of bacterial cells
T3 sequence (Q718C1 entry or part of it, stated change not applied): as above
Experimental: Protocols and procedures used for the directed evolution are detailed in see PCT/WO9914336. […] The libraries were screened with the robot and clones with the highest LI values were selected. These clones were shuffled together and another robotic screen was completed with an incubation temperature of 46° C.
as §3, with “cells.” for “cells. RD156-1H9, the clone with the highest luminescence intensity (5 to 10-fold increase) also has an about 2-fold higher Km for luciferin.”

[6] = biological target: T4, click beetle luciferase RDver5.2 variant RD156-0B4 (Pyrophorus plagiophthalamus, UniProt Q718C1, A224Y/A287S/C127T/C60V/F45V, form not given/H348Q/I288V/I91V/K85T/L262F/N249T/N346I/S247H/V325A/V389I/Y183F); experiment: Km for luciferin, lysates of bacterial cells (Table 6), RD156-0B4; assay type: biochemical; settings: read-out: Km Luciferin, CCLR lysate diluted 1:10, HEPES pH 7.8
T4 construct: lysate of bacterial cells
Experimental: (§4) Protocols and procedures used for the directed evolution are detailed in see PCT/WO9914336. DNA from the four clones with lower Km was combined and three libraries of random mutants were produced. The libraries were screened with the robot and clones with the highest LI values were selected. These clones were shuffled together and another robotic screen was completed with an incubation temperature of 46° C. The three clones with the highest LI values were RD156-0B4, RD156-1A5, and RD156-1H9.
as §3

[7] = biological target: T5, click beetle luciferase RDver5.2 variant RD156-1A5 (Pyrophorus plagiophthalamus, UniProt Q718C1, A224Y/A287S/C127T/C60V/F45V, form not given/H348Q/I288V/I91V/K85T/L262F/N249T/N346I/S247H/V325A/V389I/Y183F); experiment: Km for luciferin, lysates of bacterial cells (Table 6), RD156-1A5; assay type: biochemical; settings: read-out: Km Luciferin, CCLR lysate diluted 1:10, HEPES pH 7.8
T5 construct: lysate of bacterial cells
Experimental: as §4, §3

[8] = substrate: O=C(O)[C@H]1CSC(c2nc3ccc(O)cc3s2)=N1; experiment: Km determination with partially purified enzyme (Table 3), YG parent; assay type: biochemical, Pyrophorus plagiophthalamus; settings: other: partially purified enzyme
Source text: as §2

[9] = substrate: Nc1ncnc2c1ncn2[C@@H]1O[C@H](COP(=O)(O)OP(=O)(O)OP(=O)(O)O)[C@@H](O)[C@H]1O; experiment: as above; assay type: biochemical, Pyrophorus plagiophthalamus; settings: other: partially purified enzyme
Source text: as §2

[10] = substrate: O=C(O)[C@H]1CSC(c2nc3ccc(O)cc3s2)=N1; experiment: Km determination with partially purified enzyme (Table 3), GR; assay type: biochemical, Pyrophorus plagiophthalamus; settings: other: partially purified enzyme
Source text: as §1, §2

[11] = substrate: Nc1ncnc2c1ncn2[C@@H]1O[C@H](COP(=O)(O)OP(=O)(O)OP(=O)(O)O)[C@@H](O)[C@H]1O; experiment: as above; assay type: biochemical, Pyrophorus plagiophthalamus; settings: other: partially purified enzyme
Source text: as §1, §2

[12] = substrate: O=C(O)[C@H]1CSC(c2nc3ccc(O)cc3s2)=N1; experiment: Km for luciferin, lysates of bacterial cells (Table 6), GRver5.1; assay type: biochemical, Pyrophorus plagiophthalamus
Experimental: as §3

Molecule: Nc1ncnc2c1ncn2[C@@H]1O[C@H](COP(=O)(O)OP(=O)(O)OP(=O)(O)O)[C@@H](O)[C@H]1O [ATP]
- Km ([1]; read-out: KM (ATP)): 46 µM
- KM for ATP compared to the wild type [2]: lower

Molecule: CCCCCCCCCCCCCC(=O)O[C@@H]1[C@@H](C)[C@@]2(O)[C@@H](C=C(CO)C[C@]3(O)C(=O)C(C)=C[C@@H]23)[C@@H]2C(C)(C)[C@]12OC(C)=O [TPA, phorbol-12-myristate-13-acetate]
- fold induction ([3]; pRG-B (final, synthetic Renilla gene)): 1.47
- fold induction ([3]; pRG-B (native Renilla gene)): 8
- fold induction ([3]; pRG-tk (final, synthetic Renilla gene)): 0.88
- fold induction ([3]; pRG-tk (native Renilla gene)): 4.36
- fold induction ([3]; pRL-tk (native Renilla gene)): 4.4

Molecule: O=C(O)[C@H]1CSC(c2nc3ccc(O)cc3s2)=N1 [luciferin]
- Km ([1]; read-out: KM (LH2)): 24.5 µM
- Km ([4]; prep #1, independent experiment 1): 12 µM
- Km ([4]; prep #1, independent experiment 2): 14 µM
- Km ([4]; prep #1, independent experiment 3): 14 µM
- Km ([4]; prep #2, independent experiment 1): 40 µM
- Km ([4]; prep #2, independent experiment 2): 50 µM
- KM for luciferin compared to the wild type [2]: lower
- Km ([5]; independent experiment 1): 20 µM
- Km ([5]; independent experiment 2): 23 µM
- Km ([5]; independent experiment 3): 23 µM
- luciferin K, fold higher ([5]; relative to GRver5.1): approximately 40 fold
- Km for luciferin, fold higher ([5]; relative to RDver5.2): about 2 fold
- Km ([6]; independent experiment 1): 8 µM
- Km ([6]; independent experiment 2): 10 µM
- Km ([7]; independent experiment 1): 13 µM
- Km ([7]; independent experiment 2): 13 µM

B1: click beetle (Pyrophorus plagiophthalamus) luciferase YG#81-6G01 (YG parent, mutant of wild type LucPplYG), SEQ ID NO: 24 (Pyrophorus plagiophthalamus; … (protein)
chain: MMKREKNVIYGPEPLHPLEDLTAGEMLFRALRKHSHLPQALVDVVGDESLSYKEFFEATVLLAQSLHNCGYKMNDVVSICAENNTRFFIPVIAAWYIGMIVAPVNESYIPDELCKVMGISKPQIVFTTKNILNKVLEVQSRTNFIKRIIILDTVENIHGCESLPNFISRYSDGNIANFKPLHFDPVEQVAAILCSSGTTGLPKGVMQTHQNICVRLIHALDPRAGTQLIPGVTVLVYLPFFHAFGFSITLGYFMVGLRVIMFRRFDQEAFLKAIQDYEVRSVINVPSVILFLSKSPLVDKYDLSSLRELCCGAAPLAKEVAEVAAKRLNLPGIRCGFGLTESTSANIHSLRDEFKSGSLGRVTPLMAAKIADRETGKALGPNQVGELCIKGPMVSKGYVNNVEATKEAIDDDGWLHSGDFGYYDEDEHFYVVDRYKELIKYKGSQVAPAELEEILLKNPCIRDVAVVGIPDLEAGELPSAFVVKQPGKEITAKEVYDYLAERVSHTKYLRGGVRFVDSIPRNVTGKITRKELLKQLLEKAGG
notes: wild-type residues 540-543 replaced by 3 other residues
- Km [8]: 2 μM μM
- Km [9]: 17 μM μM

B2: synthetic green click beetle luciferase GR (GRver5.1; YG#81-6G01 variant A224V), SEQ ID NO: 31 (Pyrophorus plagiophthalamus; … (protein)
chain: B1 chain with A224V
notes: C-terminal tail changed
- Km [10]: 1.3 μM μM
- Km [11]: 25 μM μM

B3: synthetic green click beetle luciferase GRver5.1 (YG#81-6G01 variant A224V), SEQ ID NO: 31 (Pyrophorus plagiophthalamus; … (protein)
chain: B1 chain with A224V
notes: C-terminal tail changed; lysate of bacterial cells
- Km ([12]; other: prep #1, CCLR lysate diluted 1:10, HEPES pH 7.8): 0.5 µM
- Km ([12]; other: prep #2, CCLR lysate diluted 1:10, HEPES pH 7.8): 3 µM
